Measured values published in PubChem BioAssay AID485340 (Southern Research Specialized Biocontainment Screening …, 2010).
Active and inactive are the calls of the source. How the calls were made is not given here.

System: M. tuberculosis growth, meropenem IC50 shift with compound
Experiment: confirmation, meropenem IC50 shift (AID 485340);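 further: growth read after one week of culture plus overnight Alamar Blue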
[1] = compound alone IC50 vs Mtb, compound dose (near its own IC50) 4.69 µM
[2] = compound dose (near its own IC50) 4.69 µM
[3] = compound alone IC50 vs Mtb, compound dose (near its own IC50) 9.38 µM
[4] = compound dose (near its own IC50) 9.38 µM
[5] = compound alone IC50 vs Mtb, compound dose (near its own IC50) 2.35 µM
[6] = compound dose (near its own IC50) 2.35 µM
[7] = compound alone IC50 vs Mtb, compound dose (near its own IC50) 1.18 µM
[8] = compound dose (near its own IC50) 1.18 µM
[9] = compound alone IC50 vs Mtb, compound dose (near its own IC50) 0.15 µM
[10] = compound dose (near its own IC50) 0.15 µM

Cc1ccc2[nH]c(O)c(N=Nc3nc4ccccc4s3)c2c1
IC50 [1]: 6.76 µM | IC50 [2]: 5.1 µM (inactive)

COC(=O)c1c(-c2ccc(OC)cc2)oc2ccc(-c3cc(OC)c(OC)c(OC)c3)cc12
IC50 [3]: 7.72 µM | IC50 [4]: 6.1 µM (inactive)

CSc1nc(-c2ccc(Cl)cc2)nn1S(=O)(=O)c1ccccc1
IC50 [3]: 9.85 µM | IC50 [4]: 4.13 µM (inactive)

Cc1cc(NC(=O)/C=C/c2ccccc2Cl)n(-c2nc3ccccc3[nH]2)n1
IC50 [5]: 1.94 µM | IC50 [6]: 5.88 µM (inactive)

COc1c(F)c(F)c(C(=O)Nc2c(C)cc(Br)cc2C)c(F)c1F
IC50 [1]: 4.58 µM | IC50 [2]: 5.02 µM (inactive)

CC(C)CCN1CC(O)=C(c2nc3ccccc3[nH]2)C1=N
IC50 [1]: 6.68 µM | IC50 [2]: 4.06 µM (inactive)

COc1cccc(NC(=O)C2CC2)c1
IC50 [1]: 6.09 µM | IC50 [2]: 2.07 µM (inactive)

NC(=S)N/N=C/c1ccc2ccccc2c1
IC50 [5]: 2.02 µM | IC50 [6]: 1.95 µM (inactive)

O=C(Nc1cccc(Cl)c1N1CCOCC1)c1ccc([N+](=O)[O-])o1
IC50 [7]: 0.909 µM | IC50 [8]: 7.42 µM (inactive)

COC(=O)c1c(C)n(-c2ccccc2)c2ccc(O)cc12
IC50 [7]: 1.53 µM | IC50 [8]: 6.07 µM (inactive)

COc1ccc2oc(C(=O)Nc3nc4ccccc4[nH]3)c(C)c2c1
IC50 [5]: 1.7 µM | IC50 [6]: 3.58 µM (inactive)

c1ccc(Nc2ncnc3c2oc2ccccc23)cc1
IC50 [5]: 2 µM | IC50 [6]: 6.76 µM (inactive)

COc1ccc2c(c1)c(C(C)=O)c(C)n2-c1ccccc1
IC50 (compound alone IC50 vs Mtb, compound dose (near its own IC50) 0.3 µM): 0.336 µM | IC50 (compound dose (near its own IC50) 0.3 µM): 7.65 µM (inactive)

Cc1onc(-c2c(Cl)cccc2Cl)c1/C(N)=N/OC(=O)C1CC1
IC50 [5]: 2.05 µM | IC50 [6]: 1.02 µM (inactive)

O=C(Nc1ccccc1)Nc1csc2ccccc12
IC50 [9]: 0.2 µM | IC50 [10]: 4.85 µM (inactive)

Cc1ccccc1OCC(=O)Nc1ccccc1N1CCCCC1
IC50 [1]: 5.94 µM | IC50 [2]: 6.96 µM (inactive)

O=C(NN=C(Cc1ccccc1)Cc1ccccc1)c1ccccc1F
IC50 [7]: 1.64 µM | IC50 [8]: 4.28 µM (inactive)

O=C(COC(=O)C1CC1)NCc1ccccc1Cl
IC50 [7]: 1.37 µM | IC50 [8]: 2.59 µM (inactive)

COc1cccc(/C=N/NC(=O)c2cnccn2)c1O
IC50 [5]: 2.58 µM | IC50 [6]: 3.28 µM (inactive)

c1ccc(OCc2nnc(-c3ccccc3)o2)cc1
IC50 [7]: 1.4 µM | IC50 [8]: 7.26 µM (inactive)

C/C(=N\NC(=O)c1cc2c(s1)CCC(C)C2)c1ccc[nH]1 (stereo unspecified)
IC50 [1]: 6.51 µM | IC50 [2]: 1.98 µM (inactive)

O=C(N/N=C/c1cc([N+](=O)[O-])ccc1O)C1CC1
IC50 [1]: 4.14 µM | IC50 [2]: 5.6 µM (inactive)

Cc1ccc(CC(=O)Nc2nc3ccccc3[nH]2)cc1C
IC50 [1]: 6.31 µM | IC50 [2]: 4.04 µM (inactive)

Cc1ccc(OCC(=O)Nc2ccc3c4c(cccc24)CC3)c(C)c1
IC50 [5]: 1.71 µM | IC50 [6]: 7.05 µM (inactive)

Cc1ccc(-c2[nH][nH]c(=O)c(=O)c2N=Nc2ccccc2)cc1
IC50 [1]: 4.12 µM | IC50 [2]: 4.07 µM (inactive)

COc1cccc(-c2ccc(-c3noc(-c4ccccc4F)n3)c(OC)n2)c1
IC50 [3]: 9.65 µM | IC50 [4]: 4.08 µM (inactive)

Cc1nn(-c2ccccc2)cc1/C=N/NC(N)=S
IC50 [1]: 3.7 µM | IC50 [2]: 2.68 µM (inactive)

c1ccc(-c2cc(N3CCOCC3)nc3ccccc23)cc1
IC50 [5]: 2.78 µM | IC50 [6]: 3.41 µM (inactive)

C/C(=N\NC(=O)c1cc(Br)ccc1O)c1ccccn1
IC50 [1]: 3.88 µM | IC50 [2]: 1.73 µM (inactive)

CCOc1ccc2c(c1)c(C(C)=O)c(C)n2-c1ccccc1
IC50 [9]: 0.2 µM | IC50 [10]: 3.86 µM (inactive)

CC1=Nc2ccccc2/C1=C\c1nc(-c2ccc(F)cc2)oc1O
IC50 [1]: 3.73 µM | IC50 [2]: 4.02 µM (inactive)

C[C@H](NC(=O)c1[nH]cnc1C(=O)Nc1ccc(Cl)cc1)C(=O)OC(C)(C)C
IC50 [3]: 10.4 µM | IC50 [4]: 4.93 µM (inactive)

Cc1cc(C)cc(NC(=O)c2cc(Cl)sc2Cl)c1
IC50 [1]: 4.84 µM | IC50 [2]: 1.88 µM (inactive)
